Reference: the METLIN SMRT retention time set (Domingo-Almenara et al. 2019)

Assay: gradient 5% acetonitrile 3 min, to 50% in 2 min, to 85% in 15 min, held 3 min, 100 µL/min
Details: column: Zorbax Extend-C18 2.1 x 50 mm; eluents: water / acetonitrile, 0.1% formic acid
Procedure, shortened: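 Each retention time is based on an adduct peak selected computationally and verified by manual inspection. Measurements used HPLC–quadrupole time-of-flight mass spectrometry in positive and negative ionization mode on mixtures of ~100 pure standards. Chromatography ran on a Zorbax Extend-C18 column (2.1 × 50 mm, 1.8 μm) at 100 μL/min with water and acetonitrile, each containing 0.1% formic acid, and dead and dwell volumes of 40 μL and 900 μL.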

Compound | RP-LC retention time [s]
CCNC(=O)c1n[nH]c2c1CN(Cc1sccc1C)CC2 | 572
Cc1cc(C)c2[nH]c3c(c(=O)c2c1)CN(CC(=O)Nc1cccc(F)c1)CC3 | 640
COc1ccc(-c2ccnc3nc(CCc4ccccc4)nn23)c(F)c1 | 963
Cc1ccccc1NC(=O)N1CCC(c2cc(N)on2)CC1 | 644
O=C1NCCCn2cc(S(=O)(=O)N3CCN(c4ccc(Cl)cc4)CC3)cc21 | 804
O=S1(=O)C[C@H](N2CCN(c3ccccn3)CC2)[C@@H](S(=O)(=O)c2cccs2)C1 | 586
CCC(C)NC(=O)c1c2c(cn(-c3ccc(F)cc3)c1=O)C(=O)CC(C)(C)C2 (stereo not drawn) | 920
Cc1nc(C)c(C(=O)N2CCC(Oc3ccc(-c4noc(C5CC5)n4)cc3)C2)s1 (stereo not drawn) | 860
CCOc1cc(=O)n2c(c1C(=O)NC1CCCCC1)CCCCC2 | 734
O=C(NCCn1c(=O)n(Cc2ccccc2)c2cccnc21)c1nccc2ccccc12 | 836
CCOC(=O)Nc1csnn1 | 711
Cc1ccc(NS(=O)(=O)c2cc(-c3nc(C(C)(C)C)cs3)cs2)cc1 | 1210
O=C(NCCNS(=O)(=O)CCOc1ccc(F)cc1)c1ccc(NC(=O)C2CC2)cc1 | 710
Cc1ccc(N2CCN(C(=O)C3CCCN(c4cnc5nccnc5c4)C3)CC2)cc1 (stereo not drawn) | 754
O=c1n(Cc2cccc(Br)c2)nc2c(S(=O)(=O)N3CCCCCC3)cccn12 | 1010
COc1cc(C)c(Cc2cnc(N)nc2N)cc1OC | 623
O=S(=O)(Nc1ccncc1)c1cccc(C(F)(F)F)c1 | 591
Cn1c(N2CCN(C(=O)c3ccc4c(c3)OCO4)CC2)cc(=O)n(C)c1=O | 637
O=C1CCCN1CCCN1C(=O)[C@H]2CN(Cc3ccccc3Cl)C[C@H]2C1=O | 596

Compound | RP-LC retention time [s]
COc1ccc(Nc2nc(N3CCN(c4ncccn4)CC3)nc3c2C(=O)CCC3)cc1 | 1010
Cc1nc(N2CCN(c3ccccn3)CC2)nc2c1C(=O)CC(c1ccc(Cl)cc1)C2 (stereo not drawn) | 823
CC1=C(c2ccc(C)cc2)S(=O)(=O)N=C1N1CCCN(C(=O)Nc2ccccc2)CC1 | 846
Cc1ccccc1-c1nc(-c2ccc(-n3cccn3)nc2)no1 | 1310
N#Cc1cccc(S(=O)(=O)N2CCc3nc(-c4ccc(Cl)cc4)ncc3C2)c1 | 1130
Cc1ccc(F)cc1S(=O)(=O)N1CCC(n2cnnc2C(C)C)CC1 | 740
O=C(NC1CC1)C1CCN(c2ncccc2-c2nc(-c3ccc(Cl)cc3)no2)CC1 | 970
CSCC(CO)NC(=O)/C=C/c1c(C)[nH]c(=O)[nH]c1=O (stereo not drawn) | 564
COc1cccc(CNC2=NCCNC23CCN(S(=O)(=O)c2ccc(C)c(C)c2)CC3)c1 | 775
CCn1c(=O)sc2cc(S(=O)(=O)N3CCC(C(=O)Nc4cccc(C)n4)CC3)ccc21 | 768
O=C1CC(c2noc(CCc3ccccc3)n2)CN1c1ccc(F)c(Cl)c1 (stereo not drawn) | 1050
Cc1cccc(C)c1NC(=O)C1CCN(S(C)(=O)=O)c2cc(Cl)ccc2O1 (stereo not drawn) | 919
Cc1ccc(NC(=O)C2CCN(C(=O)c3ncn4c3COC(c3ccc(F)cc3)C4)CC2)cc1F (stereo not drawn) | 854
Fc1cccc(-c2noc(-c3nnn4c3COC(c3ccc(Cl)cc3)C4)n2)c1 (stereo not drawn) | 1170
O=S(=O)(c1cccc(-c2nc(-c3ccccc3)no2)c1)N1CCCc2ccccc21 | 1350
COc1cccc(Cn2ccc3ccn(CCN(C)C)c3c2=O)c1 | 639
CCc1nc(-c2csc(S(=O)(=O)N3CCCC(C(=O)NCc4ccccc4C)C3)c2)no1 (stereo not drawn) | 1010
Cc1cccc(S(=O)(=O)N2CCC3(C2)C(=O)N(C)c2ccccc23)c1 (stereo not drawn) | 910
Cc1nc2cccnc2n1CCN1CCN(C(=O)Nc2ccc(F)cc2)CC1 | 584

Compound | RP-LC retention time [s]
COc1ccc(C(=O)N2CCC3(CC2)NC(=O)c2ccc(F)cc2N3C)cc1OC | 698
Cn1ncc2c(N3CCOCC3)nc(C(=O)NCc3ccccc3)nc21 | 701
N#Cc1cccc(C(=O)Nc2cnn(-c3ncc(N4CCCC4)cn3)c2)c1 | 777
CC1CCCC(NC(=O)Cn2cnc3c(nc4n3CCCCC4)c2=O)C1C (stereo not drawn) | 711
Cc1noc2ncn(CC(=O)NCc3ccccc3F)c(=O)c12 | 705
CN(C)C/C=C/C(=O)Nc1ccc(C(=O)Nc2cccc(Nc3ncc(Cl)c(-c4c[nH]c5ccccc45)n3)c2)cc1 | 800
Cc1cc(C2CCCN2C(=O)Nc2cc(Cl)ccc2C)on1 (stereo not drawn) | 794
O=C(Cn1cccc(-c2nc(-c3ccccc3)no2)c1=O)Nc1ccc(Br)cc1F | 951
Cc1ccc(S(=O)(=O)Nc2ccncc2)c(C)c1N(C)S(=O)(=O)c1ccc(F)cc1 | 625
O=C(Cn1c(CN2CCCCCC2)nc2ccccc21)N1CCCCCC1 | 678
CCOCCCNC(=O)c1cc2sc(C)cc2n1C | 861
CCCNC(=O)C1CCN(c2nc3ccc(-c4cncnc4)nc3s2)CC1 | 719
O=C(NC1CC1)C1CCN(Cc2cc3ccccc3n2Cc2ccc(F)cc2)CC1 | 701
O=C1CC(c2cc(F)cc(F)c2)Cc2nc(N3CCN(c4ccccc4F)CC3)ncc21 (stereo not drawn) | 1300
Cc1ccc(N2N=C(C(=O)NCCN3CCOCC3)S(=O)(=O)c3cc(F)ccc32)cc1 | 654
CCC(=O)N1CCc2c([nH]c3ccccc23)C12C(=O)N(C)c1ccccc12 (stereo not drawn) | 828
Cc1cccc(-c2nc(C3CC(=O)N(c4ccc(Cl)cc4)C3)no2)c1 (stereo not drawn) | 1110
CC(C)c1noc(-c2cccnc2N2CCCN(Cc3cccc(Cl)c3)CC2)n1 | 742
CCOC(=O)c1cn(-c2c(F)c(F)c(C#N)c(F)c2F)c2c(F)c(F)c(F)cc2c1=O | 981

The remaining lines, values ahead:

RP-LC retention time [s] | Compound
744 | CCN1CCN(Cc2ccc(C(=O)NCc3ccc(C(F)(F)F)cc3)cc2)C(=O)C1=O
668 | CN(C)C(CNC(=O)c1cc(-c2cccs2)on1)c1ccc(F)cc1 (stereo not drawn)
692 | CSc1ccc(CNC(=O)CCc2c(-c3ccc(F)cc3)nc3ccccn23)cc1
952 | COc1ccc(Cc2cnc(NC(=O)C3COc4ccccc4C3)s2)cc1 (stereo not drawn)
983 | COc1ccc(N2CCN(c3cc(SCC(=O)Nc4c(C)cc(C)cc4C)ncn3)CC2)cc1
766 | CCc1nc(NCc2ccc3c(c2)OCO3)ncc1C(=O)O
1250 | CCOC(=O)c1nn(-c2ccc(F)cc2)c(=O)c2c(NC(=O)C3CCCCC3)scc12
872 | COc1ccc(CCC(=O)N2CCC3(C2)C(=O)N(C)c2ccccc23)cc1 (stereo not drawn)
671 | COc1ccc(C(C)NC(=O)c2cn3cc(C)ccc3n2)cc1 (stereo not drawn)
872 | CCc1nc(OCC(=O)Nc2ccc(C)c(F)c2)c2ccccc2n1
831 | CC(=O)c1cccc(NC(=O)Cn2cccc2-c2nnc(C3CCC3)o2)c1
928 | Cc1ccc(Cn2cccc2C(=O)C(=O)NC2CC2)cc1
617 | COc1ccc(Cl)c2c(=O)c3c([nH]c12)CCN(CC(=O)Nc1ccccc1)C3
820 | COC(=O)c1ccc(CSc2ccc(NC(=O)c3cccs3)nn2)o1
981 | COC(=O)c1ccc(NC(=O)N2CCC(CCOc3ccc(F)cc3)C2)cc1 (stereo not drawn)
656 | CNC(=O)c1sc2nc(-c3ccc(OC)cc3)c(NCCOC)n2c1C

RP-LC retention time [s] | Compound
591 | Cc1cc(NC(=O)Cc2csc(NC(=O)c3ncccn3)n2)no1
765 | NC(=O)c1cccc(-c2cc(Nc3ccc(OC(F)(F)F)cc3)ncn2)c1
784 | CCN1c2ccc(F)cc2C(=O)NC12CCN(C(=O)Cc1ccc(OC)cc1)CC2
1150 | COC(=O)c1ccc2c(=O)n(CCc3ccccc3)c(N3CCSCC3)nc2c1
1170 | COC(=O)c1ccccc1NC(=O)CSc1cc(N2CCN(c3ccccc3F)CC2)ncn1
664 | Cc1ccc(NC(=O)N2CCC(C)(C(=O)NCc3ccc(F)cc3)CC2)cc1Cl
613 | Cc1ccsc1C(=O)NCC(=O)Nc1nc2ccccc2[nH]1
1090 | Cc1noc(-c2cccn2Cc2ccc(Cl)cc2)n1
975 | COC(=O)c1ccc2c(=O)n(-c3ccc(C)c(F)c3)c(N3CCOCC3)nc2c1
770 | COc1ccc(OC)c(CNC(=O)Cn2ccc3ccc(-c4nnc(C)o4)cc32)c1
773 | O=C(NCCc1ccco1)C1CCCN(c2ccc(=O)n(-c3ccc(F)cc3)n2)C1 (stereo not drawn)
884 | COc1ccc(CN2C(=O)CSc3c(c4ccccc4n3C)C2C(=O)NCCCOC(C)C)cc1 (stereo not drawn)
809 | COc1cc(OC)cc(C(=O)N(C)CCc2noc(C(=O)NCc3ccccc3)n2)c1
1220 | COc1ccc(NC(=O)N2c3ccccc3CC2c2nc(C(C)C)no2)c(C)c1 (stereo not drawn)
576 | COc1ccc2[nH]c(=O)c(CCC(=O)NCCc3ccccn3)cc2c1
